Measured values reported in ChEMBL document CHEMBL1201862, “PubChem BioAssay data set” (2004).
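Protocol summary: plate cells (96-well), add compound at 5 concentrations, incubate 48 h, interpolate endpoints linearly. The concentration for 50% growth inhibition is given as GI50.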 The source made the active and inactive calls. Cut-off read from the data, not from the text of the source: active = GI50 up to about 1.1 µM and inactive = higher.

How the values were obtained:
Experiment in all cases: DTP human tumour cell line panel, 48 h
A549 = test system: A549
CCRF-CEM = test system: CCRF-CEM
EKVX = test system: EKVX
HCT-15 = test system: HCT-15
HOP-92 = test system: HOP-92
KM12 = test system: KM12
LOX IMVI = test system: LOX IMVI
NCI-H226 = test system: NCI-H226
NCI-H460 = test system: NCI-H460
NCI-H522 = test system: NCI-H522
OVCAR-4 = test system: OVCAR-4
OVCAR-8 = test system: OVCAR-8
RPMI-8226 = test system: RPMI-8226
SF-295 = test system: SF-295
SK-MEL-2 = test system: SK-MEL-2
SNB-19 = test system: SNB-19
U-251 = test system: U-251
UACC-257 = test system: UACC-257
UACC-62 = test system: UACC-62
UO-31 = test system: UO-31

| SMILES | GI50 (A549) | GI50 (CCRF-CEM) | GI50 (EKVX) | GI50 (HCT-15) | GI50 (HOP-92) | GI50 (KM12) | GI50 (LOX IMVI) | GI50 (NCI-H226) | GI50 (NCI-H460) | GI50 (NCI-H522) | GI50 (OVCAR-4) | GI50 (OVCAR-8) | GI50 (RPMI-8226) | GI50 (SF-295) | GI50 (SK-MEL-2) | GI50 (SNB-19) | GI50 (U-251) | GI50 (UACC-257) | GI50 (UACC-62) | GI50 (UO-31) |
| --- | --- | --- | --- | --- | --- | --- | --- | --- | --- | --- | --- | --- | --- | --- | --- | --- | --- | --- | --- | --- |
| COc1ccc(C2C3CCCC(C3=O)C(c3ccc(OC)cc3)N2N=O)cc1 (stereo not given) | 34.7 µM (inactive) | 26.1 µM (inactive) | 56.9 µM (inactive) | 36.9 µM | 41.7 µM (inactive) | 29.6 µM (inactive) | 18 µM (inactive) | 23.3 µM (inactive) | 20.6 µM (inactive) | 17.1 µM (inactive) | 21.7 µM (inactive) | 37 µM (inactive) | 20.7 µM (inactive) | 20.7 µM (inactive) | 20.5 µM (inactive) | 36.3 µM (inactive) | 40.6 µM (inactive) | 27.9 µM (inactive) | 28.6 µM (inactive) | 56.1 µM (inactive) |
| CC(C)(C)OC(=O)N1CCCC1C(=O)NC(c1ccccc1)c1ccccc1 (stereo not given) | > 100 µM (inactive) | > 100 µM (inactive) | > 100 µM (inactive) | > 100 µM | > 100 µM (inactive) | > 100 µM (inactive) | > 100 µM (inactive) | > 100 µM (inactive) | > 100 µM (inactive) | > 100 µM (inactive) | > 100 µM (inactive) | > 100 µM (inactive) | > 100 µM (inactive) | > 100 µM (inactive) | > 100 µM (inactive) | > 100 µM (inactive) | > 100 µM (inactive) | > 100 µM (inactive) | > 100 µM (inactive) | > 100 µM (inactive) |
| O=C1C(S(=O)(=O)c2ccccc2)=C(CS(=O)(=O)c2ccccc2)[C@@H](OCc2ccccc2)[C@@H]1OCc1ccccc1 | 27.7 µM (inactive) | 14 µM (inactive) | 27.2 µM (inactive) | 18.2 µM | 12.4 µM (inactive) | 0.0519 µM (active) | 15.8 µM (inactive) | 17.6 µM (inactive) | 21 µM (inactive) | 16 µM (inactive) | 20.7 µM (inactive) | 18.5 µM (inactive) | 11.6 µM (inactive) | 18.7 µM (inactive) | 16.2 µM (inactive) | 34.3 µM (inactive) | 19.6 µM (inactive) | 21.6 µM (inactive) | 17.3 µM (inactive) | 18.5 µM (inactive) |
| CN(NC(=O)c1ccc(Cl)cc1)C1=NCCCCN1 | > 100 µM (inactive) | > 100 µM (inactive) | > 100 µM (inactive) | > 100 µM | > 100 µM (inactive) | > 100 µM (inactive) | > 100 µM (inactive) | > 100 µM (inactive) | > 100 µM (inactive) | > 100 µM (inactive) | > 100 µM (inactive) | > 100 µM (inactive) | > 100 µM (inactive) | > 100 µM (inactive) | > 100 µM (inactive) | > 100 µM (inactive) | > 100 µM (inactive) | > 100 µM (inactive) | > 100 µM (inactive) | > 100 µM (inactive) |
| NC(=O)Cc1nc2c(N)ncnc2n1C1OC(CO)C(O)C1O (stereo not given) | > 100 µM (inactive) | > 100 µM (inactive) | > 100 µM (inactive) | > 100 µM | > 100 µM (inactive) | > 100 µM (inactive) | > 100 µM (inactive) | > 100 µM (inactive) | > 100 µM (inactive) | > 100 µM (inactive) | > 100 µM (inactive) | > 100 µM (inactive) | > 100 µM (inactive) | > 100 µM (inactive) | > 100 µM (inactive) | > 100 µM (inactive) | > 100 µM (inactive) | > 100 µM (inactive) | > 100 µM (inactive) | > 100 µM (inactive) |
| CSCC[C@@H]1C(=O)N(C)[C@H](C(C)(C)C)N1C(=O)c1ccccc1 | > 100 µM (inactive) | > 100 µM (inactive) | > 100 µM (inactive) | > 100 µM | > 100 µM (inactive) | > 100 µM (inactive) | > 100 µM (inactive) | > 100 µM (inactive) | > 100 µM (inactive) | > 100 µM (inactive) | > 100 µM (inactive) | > 100 µM (inactive) | > 100 µM (inactive) | > 100 µM (inactive) | > 100 µM (inactive) | > 100 µM (inactive) | > 100 µM (inactive) | > 100 µM (inactive) | > 100 µM (inactive) | > 100 µM (inactive) |
| COCCOCCOC1=C(Cl)C(=O)c2c(O)ccc(O)c2C1=O | 8.02 µM (inactive) | 0.414 µM (active) | 8.57 µM (inactive) | 1.61 µM | 1.98 µM (inactive) | 12.8 µM (inactive) | 1.95 µM (inactive) | 18.1 µM (inactive) | 12.9 µM (inactive) | 1.01 µM (active) | 1.85 µM (inactive) | 2.21 µM (inactive) | 0.718 µM (active) | 11.7 µM (inactive) | 1.17 µM (inactive) | 13.5 µM (inactive) | 5.16 µM (inactive) | 1.99 µM (inactive) | 1.63 µM (inactive) | 2.16 µM (inactive) |
| CCCSCC(P(=O)(O)O)P(=O)(O)O.NC1CCCCC1 | > 100 µM (inactive) | > 100 µM (inactive) | > 100 µM (inactive) | > 100 µM | > 100 µM (inactive) | 7.46 µM (inactive) | > 100 µM (inactive) | > 100 µM (inactive) | > 100 µM (inactive) | > 100 µM (inactive) | > 100 µM (inactive) | > 100 µM (inactive) | > 100 µM (inactive) | > 100 µM (inactive) | > 100 µM (inactive) | > 100 µM (inactive) | > 100 µM (inactive) | > 100 µM (inactive) | > 100 µM (inactive) | > 100 µM (inactive) |
| CC1(C)OCC(C2OC3OC(C)(C)OC3C2c2ccccc2)O1 (stereo not given) | 42.8 µM (inactive) | 30.5 µM (inactive) | 49 µM (inactive) | 24.2 µM | 17.6 µM (inactive) | 82.4 µM (inactive) | 32.1 µM (inactive) | 22.4 µM (inactive) | 39.8 µM (inactive) | 37.7 µM (inactive) | 41.4 µM (inactive) | 43 µM (inactive) | 48.8 µM (inactive) | > 100 µM (inactive) | 22.1 µM (inactive) | 71.8 µM (inactive) | 78 µM (inactive) | 36.1 µM (inactive) | 27 µM (inactive) | 44.8 µM (inactive) |
| ClC1CCC2OOC1O2 (stereo not given) | > 100 µM (inactive) | 54 µM (inactive) | > 100 µM (inactive) | 87.3 µM | > 100 µM (inactive) | > 100 µM (inactive) | > 100 µM (inactive) | > 100 µM (inactive) | > 100 µM (inactive) | > 100 µM (inactive) | > 100 µM (inactive) | > 100 µM (inactive) | > 100 µM (inactive) | > 100 µM (inactive) | > 100 µM (inactive) | > 100 µM (inactive) | > 100 µM (inactive) | > 100 µM (inactive) | 89.1 µM (inactive) | > 100 µM (inactive) |
| COc1cccc2c1C(=O)c1c(O)c3c(c(O)c1C2=O)C[C@@](O)(C(C)=O)CC3S(=O)(=O)O (stereo not given in full) | > 100 µM (inactive) | > 100 µM (inactive) | > 100 µM (inactive) | > 100 µM | > 100 µM (inactive) | > 100 µM (inactive) | > 100 µM (inactive) | > 100 µM (inactive) | > 100 µM (inactive) | > 100 µM (inactive) | > 100 µM (inactive) | > 100 µM (inactive) | > 100 µM (inactive) | > 100 µM (inactive) | > 100 µM (inactive) | > 100 µM (inactive) | > 100 µM (inactive) | > 100 µM (inactive) | > 100 µM (inactive) | > 100 µM (inactive) |
| CCCNC(=O)Nc1c([N+](=O)[O-])cc(C(F)(F)F)cc1[N+](=O)[O-] | 58.6 µM (inactive) | > 100 µM (inactive) | > 100 µM (inactive) | 51.8 µM | > 100 µM (inactive) | 55.5 µM (inactive) | 62.8 µM (inactive) | > 100 µM (inactive) | 42.1 µM (inactive) | 31.3 µM (inactive) | 20.3 µM (inactive) | 74.3 µM (inactive) | 83.9 µM (inactive) | 84.9 µM (inactive) | > 100 µM (inactive) | > 100 µM (inactive) | > 100 µM (inactive) | 36.3 µM (inactive) | 37.3 µM (inactive) | > 100 µM (inactive) |
| CCOC(=O)C(CC(C)C)NC(=O)C(Cc1ccc(N(CCCl)CCCl)cc1)NC(C)=O (stereo not given) | 13.4 µM (inactive) | 0.621 µM (active) | 11.1 µM (inactive) | 9.71 µM | 0.63 µM (active) | 20.7 µM (inactive) | 2.68 µM (inactive) | 14.4 µM (inactive) | 2.75 µM (inactive) | 1.57 µM (inactive) | 8.89 µM (inactive) | 8.63 µM (inactive) | 2.82 µM (inactive) | 7.05 µM (inactive) | 2.45 µM (inactive) | 14 µM (inactive) | 7.91 µM (inactive) | 3.74 µM (inactive) | 1.4 µM (inactive) | 8.02 µM (inactive) |
| CC1=C[C@]2(O)C(=O)[C@H](C)C[C@H]3[C@@H](CC[C@@](C)(O)/C=C\2C1=O)C3(C)C | 35.5 µM (inactive) | 24.8 µM (inactive) | 70.5 µM (inactive) | 17 µM | 23 µM (inactive) | 34.7 µM (inactive) | 17.3 µM (inactive) | 33.7 µM (inactive) | 25.5 µM (inactive) | 13.7 µM (inactive) | 23.6 µM (inactive) | 20.5 µM (inactive) | > 41.9 µM (inactive) | 24.5 µM (inactive) | 17.9 µM (inactive) | 60.7 µM (inactive) | 21.7 µM (inactive) | 17.4 µM (inactive) | 16 µM (inactive) | 62.5 µM (inactive) |
